Patent US11771738B2 (Zoetis Services LLC, priority 2018, dated 2023)
Marks after values point to notes of the source that are not given here.

Tested on: third stage larvae of Haemonchus contortus
Test: Haemonchus contortus, Larvae Stage 3 (HcL3) In Vitro Assay
Format: cell-based
Conditions: approximately 96 hours incubation; multiple-resistant field isolate

Structure (SMILES) | HcL3 MED (symbol after Ex#)
CC(C)C[C@H]1C(=O)O[C@H](Cc2ccc(Cc3cncs3)cc2)C(=O)N(C)[C@@H](CC(C)C)C(=O)O[C@H](C)C(=O)N(C)[C@@H](CC(C)C)C(=O)O[C@H](Cc2ccccc2)C(=O)N(C)[C@@H](CC(C)C)C(=O)O[C@H](C)C(=O)N1C [Example 4-35] | 4-35^ (Examples with a carrot (^) have HcL3 MED values>1 and ≤3.3 μM)
CC(C)C[C@H]1C(=O)O[C@H](Cc2ccc(Cc3ccsn3)cc2)C(=O)N(C)[C@@H](CC(C)C)C(=O)O[C@H](C)C(=O)N(C)[C@@H](CC(C)C)C(=O)O[C@H](Cc2ccccc2)C(=O)N(C)[C@@H](CC(C)C)C(=O)O[C@H](C)C(=O)N1C [Example 4-36] | 4-36^ (Examples with a carrot (^) have HcL3 MED values>1 and ≤3.3 μM)
Cc1cc(Cc2ccc(C[C@H]3OC(=O)[C@H](CC(C)C)N(C)C(=O)[C@@H](C)OC(=O)[C@H](CC(C)C)N(C)C(=O)[C@@H](Cc4ccccc4)OC(=O)[C@H](CC(C)C)N(C)C(=O)[C@@H](C)OC(=O)[C@H](CC(C)C)N(C)C3=O)cc2)n(C)n1 [Example 4-42] | 4-42^ (Examples with a carrot (^) have HcL3 MED values>1 and ≤3.3 μM)
CC(C)C[C@H]1C(=O)O[C@H](Cc2ccc(Cc3cocn3)cc2)C(=O)N(C)[C@@H](CC(C)C)C(=O)O[C@H](C)C(=O)N(C)[C@@H](CC(C)C)C(=O)O[C@H](Cc2ccccc2)C(=O)N(C)[C@@H](CC(C)C)C(=O)O[C@H](C)C(=O)N1C [Example 4-52] | 4-52* (Examples with an asterisk (*) have HcL3 MED values≤1 μM)
Cc1scnc1C(O)c1ccc(C[C@H]2OC(=O)[C@H](CC(C)C)N(C)C(=O)[C@@H](C)OC(=O)[C@H](CC(C)C)N(C)C(=O)[C@@H](Cc3ccccc3)OC(=O)[C@H](CC(C)C)N(C)C(=O)[C@@H](C)OC(=O)[C@H](CC(C)C)N(C)C2=O)cc1 (stereo partly shown) [Example 4-56] | 4-56^ (Examples with a carrot (^) have HcL3 MED values>1 and ≤3.3 μM)
Cc1nc(Cc2ccc(C[C@H]3OC(=O)[C@H](CC(C)C)N(C)C(=O)[C@@H](C)OC(=O)[C@H](CC(C)C)N(C)C(=O)[C@@H](Cc4ccccc4)OC(=O)[C@H](CC(C)C)N(C)C(=O)[C@@H](C)OC(=O)[C@H](CC(C)C)N(C)C3=O)cc2)cs1 [Example 4-66] | 4-66^ (Examples with a carrot (^) have HcL3 MED values>1 and ≤3.3 μM)
CC(C)C[C@H]1C(=O)O[C@H](Cc2ccc(C(O)c3sccc3Cl)cc2)C(=O)N(C)[C@@H](CC(C)C)C(=O)O[C@H](C)C(=O)N(C)[C@@H](CC(C)C)C(=O)O[C@H](Cc2ccccc2)C(=O)N(C)[C@@H](CC(C)C)C(=O)O[C@H](C)C(=O)N1C (stereo partly shown) [Example 4-77] | 4-77^ (Examples with a carrot (^) have HcL3 MED values>1 and ≤3.3 μM)
Cc1nc(Cc2ccc(C[C@H]3OC(=O)[C@H](CC(C)C)N(C)C(=O)[C@@H](C)OC(=O)[C@H](CC(C)C)N(C)C(=O)[C@@H](Cc4ccccc4)OC(=O)[C@H](CC(C)C)N(C)C(=O)[C@@H](C)OC(=O)[C@H](CC(C)C)N(C)C3=O)cc2)co1 [Example 4-83] | 4-83^ (Examples with a carrot (^) have HcL3 MED values>1 and ≤3.3 μM)
Cc1csc(Cc2ccc(C[C@H]3OC(=O)[C@H](CC(C)C)N(C)C(=O)[C@@H](C)OC(=O)[C@H](CC(C)C)N(C)C(=O)[C@@H](Cc4ccccc4)OC(=O)[C@H](CC(C)C)N(C)C(=O)[C@@H](C)OC(=O)[C@H](CC(C)C)N(C)C3=O)cc2)n1 [Example 4-90] | 4-90^ (Examples with a carrot (^) have HcL3 MED values>1 and ≤3.3 μM)
Cc1nc(C)c(Cc2ccc(C[C@H]3OC(=O)[C@H](CC(C)C)N(C)C(=O)[C@@H](C)OC(=O)[C@H](CC(C)C)N(C)C(=O)[C@@H](Cc4ccccc4)OC(=O)[C@H](CC(C)C)N(C)C(=O)[C@@H](C)OC(=O)[C@H](CC(C)C)N(C)C3=O)cc2)o1 [Example 4-91] | 4-91^ (Examples with a carrot (^) have HcL3 MED values>1 and ≤3.3 μM)
